Reference: patent publication US10941174B2, “Non-caloric sweetener” (Conagen Inc., priority 2014, dated 2021)
Each block holds one compound with its values, some of them ahead of it.

Columns and labels:
[1] = Solubility in water of Reb D3 compared to Reb D; format: physicochemical
Excerpt: In this Example, the solubility of Reb D3 was compared to Reb D.

[2] = Sensory evaluation (taste test) of Reb D3 against sucrose controls by a panel of nine volunteers; format: in vivo, human; settings: for overall % sweetness equivalence (SE) average: room temperature, vs 1.0%, 3.0%, 6.0% sucrose (w/v), nine volunteers
Experimental: In this Example, a taste test was conducted on Reb D3.
Sensory evaluation of Reb D3 was performed using sucrose as a control. The sucrose sample purchased from Sigma-Aldrich and prepared control samples at three different concentrations of 1.0%, 3.0%, and 6.0% sucrose in bottled water (w/v) at room temperature. The steviol glycoside Reb D3 at 300, and 600 ppm for sensory evaluation was prepared by adding corresponding mass into a 1000 mL of bottled water. The mixture was stirred at room temperature and the steviol glycoside sample was then evaluated against several control sucrose samples at 1.0%, 3.0%, and 6.0% by a panel of nine volunteers.

[3] = background statement; cited from earlier work

Compound: C=C1C[C@@]23CCC4[C@](C)(C(=O)OC5OC(CO)C(O)C(O)C5OC5OC(CO)C(O)C(O)C5O)CCC[C@@]4(C)[C@@H]2CCC1(OC1OC(COC2OC(CO)C(O)C(O)C2O)C(O)C(O)C1OC1OC(CO)C(O)C(O)C1O)C3 (stereo partly drawn) [Reb D3, 13-[(2-O-β-D-glucopyranosyl-6-O-β-D-glucopyranosyl-β-D-glucopyranosyl)oxy] ent-kaur-16-en-19-oic acid-(2-O-β-D-glucopyranosyl-β-D-glucopyranosyl) ester]
solubility in water compared with Reb D [1]: higher solubility in water than does Reb D
dissolution in water ([1]; solutions of 0.25 mM, 0.5 mM, 1 mM, 1.5 mM, 2 mM, 5 mM and 10 mM in water): completely dissolved in water immediately
overall % sweetness equivalence (SE) average ([2]; 300 ppm in bottled water): about 2.4%
overall % sweetness equivalence (SE) average ([2]; 600 ppm in bottled water): ~5.4%
times sweeter to sucrose ([2]; from SE at 300 and 600 ppm): 80-90 times

Compound: C=C1C[C@@]23CC[C@H]4[C@@](C)(CCC[C@@]4(C)C(=O)O[C@@H]4O[C@H](CO)[C@@H](O)[C@H](O)[C@H]4O)[C@@H]2CC[C@]1(O[C@@H]1O[C@H](CO)[C@@H](O)[C@H](O[C@@H]2O[C@H](CO)[C@@H](O)[C@H](O)[C@H]2O)[C@H]1O[C@@H]1O[C@H](CO)[C@@H](O)[C@H](O)[C@H]1O)C3 [Rebaudioside A]
after-taste [3]: less of an after-taste than stevioside

Compound: C=C1C[C@@]23CC[C@H]4[C@@](C)(CCC[C@@]4(C)C(=O)O[C@@H]4O[C@H](CO)[C@@H](O)[C@H](O)[C@H]4O)[C@@H]2CC[C@]1(O[C@@H]1O[C@H](CO)[C@@H](O)[C@H](O)[C@H]1O[C@@H]1O[C@@H](C)[C@H](O)[C@@H](O)[C@H]1O)C3 [Dulcoside A]
times sweeter than sucrose [3]: about 30 times

Compound: C=C1C[C@@]23CCC4[C@](C)(C(=O)OC5OC(CO)C(O)C(O)C5OC5OC(CO)C(O)C(O)C5O)CCC[C@@]4(C)[C@@H]2CCC1(OC1OC(CO)C(O)C(O)C1OC1OC(CO)C(O)C(O)C1O)C3 (stereo partly shown) [rebaudioside E, Rebaudioside E]
after-taste [3]: less of an after-taste than stevioside

Compound: C=C1C[C@@]23CC[C@H]4[C@@](C)(CCC[C@@]4(C)C(=O)O[C@@H]4O[C@H](CO)[C@@H](O)[C@H](O)[C@H]4O)[C@@H]2CC[C@]1(O[C@@H]1O[C@H](CO)[C@@H](O)[C@H](O)[C@H]1O[C@@H]1O[C@H](CO)[C@@H](O)[C@H](O)[C@H]1O)C3 [Stevioside]
after-taste [3]: bitter after-taste
times sweeter than sucrose [3]: 100-150 times

dissolution in water when heated ([1]; 0.5 mM, 1 mM, 1.5 mM, 2 mM, 5 mM and 10 mM, heated at 30° C. for 72 hours): did not dissolve
concentration that totally dissolved in water ([1]; tested 0.25-10 mM in water): 250 µM
Compound: C=C1C[C@@]23CC[C@H]4[C@@](C)(CCC[C@@]4(C)C(=O)O[C@@H]4O[C@H](CO)[C@@H](O)[C@H](O)[C@H]4O[C@@H]4O[C@H](CO)[C@@H](O)[C@H](O)[C@H]4O)[C@@H]2CC[C@]1(O[C@@H]1O[C@H](CO)[C@@H](O)[C@H](O[C@@H]2O[C@H](CO)[C@@H](O)[C@H](O)[C@H]2O)[C@H]1O[C@@H]1O[C@H](CO)[C@@H](O)[C@H](O)[C@H]1O)C3 [Reb D, Rebaudioside D]

Compound: C=C1C[C@@]23CC[C@H]4[C@@](C)(CCC[C@@]4(C)C(=O)O[C@@H]4O[C@H](CO)[C@@H](O)[C@H](O)[C@H]4O)[C@@H]2CC[C@]1(O[C@@H]1O[C@H](CO)[C@@H](O)[C@H](O[C@@H]2O[C@H](CO)[C@@H](O)[C@H](O)[C@H]2O)[C@H]1O[C@@H]1O[C@@H](C)[C@H](O)[C@@H](O)[C@H]1O)C3 [Rebaudioside C]
times sweeter than sucrose [3]: 40-60 times
